Legend:
[1] = target: T1, rat μ (C6-MOR) opioid receptor (Rattus norvegicus, UniProt P33535); experiment: Stimulation of [35S]GTPγS binding, MOR; format: biochemical; settings: for EC50: [35S]GTPγS binding, C6-MOR membranes, mean ± standard error; for Emax: [35S]GTPγS maximal stimulation compared with 10 μM standard DAMGO
T1 construct: expressed in transfected cells
Outline: (§1)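 Membranes (10–20 μg protein) from C6 glioma cells expressing rat MOR or DOR, or CHO cells expressing human KOR, were incubated 1 h at room temperature with 0.1 nM [35S]GTPγS, 30 μM GDP and test peptides in Tris buffer pH 7.4. Bound label was filtered and counted; maximal stimulation, by nonlinear regression, was relative to 10 μM DAMGO (MOR), DPDPE (DOR) or U69,593 (KOR).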

[2] = target: T2, human κ (CHO-KOR) opioid receptor (Homo sapiens, UniProt P41145); experiment: Stimulation of [35S]GTPγS binding, KOR; format: biochemical; settings: for EC50 / EC50 (nm) KOR: [35S]GTPγS binding, CHO-KOR membranes, mean ± standard error; for Emax / % stimulation KOR: [35S]GTPγS maximal stimulation compared with 10 μM standard U-69,593
T2 construct: expressed in transfected cells
Outline: as §1

[3] = target: T2, human κ (CHO-KOR) opioid receptor; experiment: Radioligand binding assay, [3H]diprenorphine displacement, KOR; settings: displacement of 0.2 nM [3H]diprenorphine, CHO-KOR membranes; mean ± standard error
Outline: (§2)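 Membranes from C6 glioma cells stably expressing rat MOR or DOR, or CHO cells expressing human KOR (20 μg protein), were incubated with 0.2 nM [3H]diprenorphine and test peptide in 50 mM Tris-HCl pH 7.4 for 1 h at room temperature. Nonspecific binding defined with 10 μM naloxone; Ki from nonlinear regression.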

[4] = tested on: C57BL/6 mice; experiment: Antinociception, warm water tail withdrawal assay;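 as to Antinociceptive activity: fully efficacious means no withdrawal up to the 20 s cutoff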; format: in vivo; settings: mouse tail withdrawal; for Antinociceptive activity: 50° C. water bath, cutoff 20 s, ip; for Duration: duration of antinociceptive action, 50° C.
Experimental: In Vivo Pharmacology. Animals. Adult male C57BL/6 mice weighing between 20 and 30 g at 8-16 weeks old were used for the current experiments (obtained from Jackson Laboratories (Bar Harbor, Me.), Harlan (Indianapolis, Ind.), or bred in-house). Mice were group-housed and had free access to food and water at all times. Experiments were conducted in the housing room, which was maintained on a 12 h light/dark cycle (with lights on at 0700). Each mouse was used only once and experiments were conducted between 11 a.m. and 4 p.m. Studies were performed in accordance with the University of Michigan Committee on the Use and Care of Animals and the Guide for the Care and Use of Laboratory Animals (National Research Council, 2011 publication).
Antinociception. The antinociceptive effects of the compounds disclosed herein and morphine can be evaluated in the warm water tail withdrawal assay using a cumulative dosing procedure. To determine tail withdrawal latencies, each mouse was placed briefly into a plastic, cylindrical restrainer and 2-3 cm of the tail tip was placed into a water bath maintained at 50° C. The latency to withdraw the tail was recorded with a maximum cutoff time of 20 s. […] Each animal received an injection of saline (intraperitoneal, ip) and then 30 min later, the baseline withdrawal latencies were recorded and ranged between 3 and 6 s. Following baseline determinations, three increasing doses (1, 2.2, and 6.8 mg/kg) of 1(4R) were given at 30 min intervals to provide final doses of 1, 3.2, and 10 mg/kg. Thirty minutes after each injection, the tail withdrawal latency was measured as described above. To confirm that 1(4R) was acting at opioid receptors, the cumulative dose response was repeated over the doses 3.2, 10, and 32 mg/kg following a 30 min pretreatment with 1 mg/kg naltrexone (ip). To determine the time-course of antinociceptive action the tail-withdrawal test was performed at varying times following administration of morphine (10 mg/kg, ip) or 1(4R) (10 mg/kg, ip).

[5] = target: T3, rat δ (C6-DOR) opioid receptor (Rattus norvegicus, UniProt P33533); experiment: Radioligand binding assay, [3H]diprenorphine displacement, DOR; settings: displacement of 0.2 nM [3H]diprenorphine, C6-DOR membranes; mean ± standard error
T3 construct: expressed in transfected cells
Outline: as §2

[6] = target: T1, rat μ (C6-MOR) opioid receptor; experiment: Radioligand binding assay, [3H]diprenorphine displacement, MOR; settings: displacement of 0.2 nM [3H]diprenorphine, C6-MOR membranes; mean ± standard error
Outline: as §2

[7] = target: T3, rat δ (C6-DOR) opioid receptor; experiment: Stimulation of [35S]GTPγS binding, DOR; format: biochemical
Outline: as §1

[8] = [35S]GTPγS binding, C6-DOR membranes, mean ± standard error
[9] = [35S]GTPγS maximal stimulation compared with 10 μM standard DPDPE

T3 sequence (P33533 whole entry): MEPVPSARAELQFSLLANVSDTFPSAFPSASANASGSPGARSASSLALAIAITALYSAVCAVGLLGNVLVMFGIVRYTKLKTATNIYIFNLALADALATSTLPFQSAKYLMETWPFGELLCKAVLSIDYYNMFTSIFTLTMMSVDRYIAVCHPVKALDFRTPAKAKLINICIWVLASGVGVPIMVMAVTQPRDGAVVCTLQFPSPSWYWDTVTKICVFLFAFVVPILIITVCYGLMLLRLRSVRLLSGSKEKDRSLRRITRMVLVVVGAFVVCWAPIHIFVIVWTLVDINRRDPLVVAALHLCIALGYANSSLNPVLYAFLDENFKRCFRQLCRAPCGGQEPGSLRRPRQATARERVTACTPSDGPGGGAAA
T1 sequence (P33535 whole entry): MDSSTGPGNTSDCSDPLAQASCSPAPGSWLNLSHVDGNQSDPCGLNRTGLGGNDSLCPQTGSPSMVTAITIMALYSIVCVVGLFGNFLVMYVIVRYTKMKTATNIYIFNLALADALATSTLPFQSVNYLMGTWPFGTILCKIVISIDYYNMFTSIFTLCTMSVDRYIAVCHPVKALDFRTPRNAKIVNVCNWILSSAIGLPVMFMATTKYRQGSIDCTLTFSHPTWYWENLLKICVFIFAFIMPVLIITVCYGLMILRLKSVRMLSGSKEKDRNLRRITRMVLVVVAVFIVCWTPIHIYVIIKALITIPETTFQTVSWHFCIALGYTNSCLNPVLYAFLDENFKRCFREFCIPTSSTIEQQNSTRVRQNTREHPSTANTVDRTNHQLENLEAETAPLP
T2 sequence (P41145 whole entry): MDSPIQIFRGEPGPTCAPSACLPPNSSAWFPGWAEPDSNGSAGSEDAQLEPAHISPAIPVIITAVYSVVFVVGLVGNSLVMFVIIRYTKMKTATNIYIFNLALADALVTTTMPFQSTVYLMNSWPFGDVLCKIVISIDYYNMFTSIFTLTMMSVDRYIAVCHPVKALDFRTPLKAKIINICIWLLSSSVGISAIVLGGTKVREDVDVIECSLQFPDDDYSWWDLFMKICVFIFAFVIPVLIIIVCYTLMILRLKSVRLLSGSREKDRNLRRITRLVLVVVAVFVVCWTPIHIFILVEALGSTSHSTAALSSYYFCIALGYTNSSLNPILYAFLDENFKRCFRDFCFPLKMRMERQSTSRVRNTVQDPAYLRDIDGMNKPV

| SMILES | EC50 [1] [nM] | Emax [1] [%] | EC50 [2] [nM] | Emax [2] [%] | Ki [3] [nM] | Antinociceptive activity [4] | Ki [5] [nM] | Ki [6] [nM] | EC50 [7, 8] [nM] | Emax [7, 9] [%] | EC50 (nm) KOR [2] | % stimulation KOR [2] | EC50 (nm) DOR [7, 8] | % stimulation DOR [7, 9] | Duration [4] [min] |
| --- | --- | --- | --- | --- | --- | --- | --- | --- | --- | --- | --- | --- | --- | --- | --- |
| Cc1cc(O)cc(C)c1C[C@H](N)C(=O)N[C@@H]1CCNc2c1cc(Cc1ccccc1)cc2C(F)(F)F [Compound 1129] | 1.8 | 70 | 600 | 17 | 21 | Inactive | 3.7 | 0.3 | 50 | 42 | – | – | – | – | – |
| Cc1cc(O)cc(C)c1C[C@H](N)C(=O)N[C@@H]1CCNc2c(-c3ccoc3)cc(Cc3ccccc3)cc21 [Compound 1094] | 9.77 ± 6.34 | 103 ± 5 | 290 | 29 | 27.9 ± 6.24 | Inactive | 3.49 ± 0.55 | 0.34 ± 0.08 | 74.9 ± 61.5 | 36.7 ± 5.53 | – | – | – | – | – |
| Cc1cc(O)cc(C)c1C[C@H](N)C(=O)N[C@@H]1CCNc2c(C(=O)O)cc(Cc3ccccc3)cc21 [Compound 1130] | 4 | 60 | – | – | 700 | Inactive | 2.3 | 0.6 | – | – | dns | dns | dns | dns | – |
| Cc1cc(O)cc(C)c1C[C@H](N)C(=O)N[C@@H]1CCNc2c(CN3CCOCC3)cc(Cc3ccccc3)cc21 [Compound 1099] | 1.84 ± 0.41 | 96.1 ± 1.76 | – | – | 19.4 ± 8.53 | Inactive | 2.61 ± 0.79 | 0.15 ± 0.04 | 172 ± 65.8 | 29 ± 6.78 | dns | dns | – | – | – |
| CCCCc1cc(Cc2ccccc2)cc2c1NCC[C@H]2NC(=O)[C@@H](N)Cc1c(C)cc(O)cc1C [Compound 1126] | 17.9 ± 5.83 | 85 ± 2 | – | – | 34.4 ± 4.7 | Fully efficacious | 3.55 ± 0.46 | 0.75 ± 0.4 | 200 ± 77 | 24.9 ± 4.43 | dns | dns | – | – | 150 |
| Cc1cc(O)cc(C)c1C[C@H](N)C(=O)N[C@@H]1CCNc2c1cc(Cc1ccccc1)cc2C(C)(C)C [Compound 1057] | 9.87 ± 3.55 | 83.2 ± 4.6 | – | – | 64.7 ± 17.8 | Partially active | 3.78 ± 0.66 | 0.91 ± 0.4 | 238 ± 39.3 | 57.9 ± 14 | dns | dns | – | – | – |
| CCc1cc(Cc2ccccc2)cc2c1NCC[C@H]2NC(=O)[C@@H](N)Cc1c(C)cc(O)cc1C [Compound 1127] | 37 | 75 | – | – | 44 | Fully efficacious | 4.6 | 0.05 | 23 | 48 | dns | dns | – | – | 60 |
| CCCc1cc(Cc2ccccc2)cc2c1NCC[C@H]2NC(=O)[C@@H](N)Cc1c(C)cc(O)cc1C [Compound 1056] | 23.3 ± 6.94 | 89.5 ± 6.27 | – | – | 98.4 ± 18.2 | Inactive | 5.89 ± 1.5 | 0.64 ± 0.08 | 307 ± 28.6 | 35.7 ± 2.62 | dns | dns | – | – | – |
